Usually IC50 stands for the concentration that inhibits the measured activity by half.

The values that follow come from PMC7142633, “Impact of B-Ring Substitution and Acylation with Hydroxy Cinnamic Acids on the Inhibition of Porcine α-Amylase by Anthocyanin-3-Glycosides” (Foods, 2020).

Test [1] concerns the target T1, α-amylase from porcine pancreas (Sus scrofa, UniProt P00690).
T1 construct: A saline suspension of α-amylase from porcine pancreas; purchased Sigma Aldrich (Steinheim, Germany) Lot #SLBN9170V (catalogue number not given); host or cells: porcine pancreas (tissue-derived)
T1 sequence (P00690 16-511): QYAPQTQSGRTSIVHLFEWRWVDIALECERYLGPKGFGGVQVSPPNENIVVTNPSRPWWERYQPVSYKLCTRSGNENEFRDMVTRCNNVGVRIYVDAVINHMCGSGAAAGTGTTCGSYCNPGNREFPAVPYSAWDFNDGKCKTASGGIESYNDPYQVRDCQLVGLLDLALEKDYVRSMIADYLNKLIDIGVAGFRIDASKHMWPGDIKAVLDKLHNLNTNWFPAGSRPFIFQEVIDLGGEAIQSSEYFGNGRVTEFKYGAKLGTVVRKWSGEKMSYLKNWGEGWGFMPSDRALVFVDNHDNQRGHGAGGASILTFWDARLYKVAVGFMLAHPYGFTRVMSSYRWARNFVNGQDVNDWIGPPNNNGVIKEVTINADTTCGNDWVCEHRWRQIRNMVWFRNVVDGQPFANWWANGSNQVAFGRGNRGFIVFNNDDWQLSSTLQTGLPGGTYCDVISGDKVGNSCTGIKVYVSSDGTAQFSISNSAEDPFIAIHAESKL
Briefly: Isothermal titration calorimetry, single injection, GalG2CNP conversion. The format is biochemical. The note with it: 100 µM inhibitor, 0.95 mM substrate, 37 °C. As for the experimental part:
To evaluate the inhibitory strength of 100 µM anthocyanin-3-glucosides and black carrot anthocyanins, GalG2CNP conversion to CNP was monitored by the released heat. According to the previous study, ITC measurements were carried out in a single injection experiment set-up on a MICROCALTM PEAQ-ITC calorimeter (S/N MAL1188053, Malvern Panalytical Almelo, Netherlands). Following an equilibration time of 10 min, 1 µL α-amylase (1 µM in 50 mM MES^+ buffer) was added to 0.95 mM of the substrate with or without 100 µM of the phenolic inhibitor in the cell (Vcell = 0.207 mL). The temperature was maintained at 37 °C and the sample was stirred at 750 rpm throughout. The feedback/gain mode was set to high. The resulting heat profile was transformed and the conversion rate was plotted against the substrate concentration [S] by an origin routine template provided by Malvern® for Origin version 7.
In general terms: ITC needs no label: the signal is the heat of the interaction.

The target in test [2] is porcine pancreatic α-amylase. Further details: method as in doi:10.1016/j.jff.2015.11.042. Particulars: cited from earlier work.

On to `COc1cc(-c2[o+]c3cc(O)cc(O)c3cc2O[C@@H]2O[C@H](CO)[C@@H](O)[C@H](O)[C@H]2O)ccc1O` [Peo-glc, peonidin-3-glucoside], for which the “inhibitory strength by ITC (thermogram, Michaelis Menten plot)” value in test [1] is “Mlv-3-glc > Cyd-3-glc > Dpd-3-glc~Peo-3-glc”. In test [2], the IC50 was 75 ± 7 µM and the inhibition type result is on record as “competitive inhibition type”.
